Assay results: PubChem BioAssay (NCI)
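Values below derive from 48-hour exposures of cells grown in 96-well plates, with endpoints linearly interpolated between the two concentrations bracketing the appropriate inhibition level. TGI marks complete inhibition of growth.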

Tests used:
Test in all cases: NCI-60 cell line screen, 48 h
KM20L2 colon = test system: KM20L2 colon
HOP-18 NSCLC = test system: HOP-18 NSCLC
LXFL 529 NSCLC = test system: LXFL 529 NSCLC
SF-295 CNS = test system: SF-295 CNS
DMS 273 small cell lung = test system: DMS 273 small cell lung
DLD-1 colon = test system: DLD-1 colon
DMS 114 small cell lung = test system: DMS 114 small cell lung
M19-MEL melanoma = test system: M19-MEL melanoma
XF 498 CNS = test system: XF 498 CNS
RXF-631 renal = test system: RXF-631 renal
LOX IMVI melanoma = test system: LOX IMVI melanoma
SNB-78 CNS = test system: SNB-78 CNS
SN12C renal = test system: SN12C renal

Measured: TGI

C#CC1(O)CCC2[C@@H]3CCc4cc(Oc5nc(F)nc(-c6c7ccccc7c(SCC)n6CCC)n5)ccc4C3CC[C@@]21C (stereo partly specified)
not listed: SN12C renal
> 100 µM: all other assays above

c1ccc(SC23C4C5C6C4C2C6C53)nc1 (stereo unspecified)
not listed: XF 498 CNS
> 100 µM: all other assays above

CCn1c2c(c3ccccc31)[C@@H](c1ccc(Cl)cc1)CC1C(=O)N(c3ccccc3)C(=O)C21 (stereo partly specified)
not listed: RXF-631 renal
> 100 µM: all other assays above
